The subject of one assay is PC-12. The assay can be described thus: Neuroprotective activity against hydrogen peroxide-induced cell damage in rat PC12 cells assessed as increase in cell viability at 3.125 to 50 uM preincubated with compound followed by H2O2 challenge by MTT assay. The format is functional, cell-based. (In general: Tetrazolium dyes change colour on reduction, which living cells bring about.)

A further assay relates to VSMC. The assay can be described thus: Antiproliferative activity against angiotensin 2-stimulated Wistar rat VSMC after 48 hrs by MTT method. The format is functional, cell-based.

The source made the active and inactive calls. The rule behind the calls is not given here.

With `C=C[C@@H](O)C#CC#CC[C@@H](O)[C@@H](CCCCCCC)OC(=O)[C@H]1O[C@@H](O[C@H]2CC[C@]3(C)[C@H]4CC=C5[C@@H]6CC(C)(C)CC[C@]6(C(=O)O)CC[C@@]5(C)[C@]4(C)CC[C@H]3C2(C)C)[C@H](O[C@@H]2O[C@H](CO)[C@@H](O)[C@H](O)[C@H]2O)[C@@H](O)[C@@H]1O`, the result in the assay with PC-12 was Active.

For `CCCCOC(=O)[C@H]1O[C@@H](O[C@H]2CC[C@]3(C)[C@H]4CC=C5[C@@H]6CC(C)(C)CC[C@]6(C(=O)O[C@@H]6O[C@H](CO)[C@@H](O)[C@H](O)[C@H]6O)CC[C@@]5(C)[C@]4(C)CC[C@H]3C2(C)C)[C@H](O)[C@@H](O)[C@@H]1O[C@@H]1O[C@@H](CO)[C@H](O)[C@H]1O`, the outcome in the assay with PC-12 was Active.

As for `COC(=O)[C@H]1O[C@@H](O[C@H]2CC[C@]3(C)[C@H]4CC=C5[C@@H]6CC(C)(C)CC[C@]6(C(=O)O[C@@H]6O[C@H](CO)[C@@H](O)[C@H](O)[C@H]6O)CC[C@@]5(C)[C@]4(C)CC[C@H]3C2(C)C)[C@H](O)[C@@H](O)[C@@H]1O`, the “growth inhibition (GI)” value with VSMC is “Dose-dependent effect”.

Take `CCCCOC(=O)[C@H]1O[C@@H](O[C@H]2CC[C@]3(C)[C@H]4CC=C5[C@@H]6CC(C)(C)CC[C@]6(C(=O)O)CC[C@@]5(C)[C@]4(C)CC[C@H]3C2(C)C)[C@H](O[C@@H]2O[C@H](CO)[C@@H](O)[C@H](O)[C@H]2O)[C@@H](O)[C@@H]1O`: the outcome in the assay with PC-12 was Active.

The record behind these values is ChEMBL document CHEMBL3994601, “Polyacetylenic Oleanane-Type Triterpene Saponins from the Roots of Panax japonicus” (J Nat Prod, 2016).
